What was measured:
Surinam grass = assay: Test B pre-/postemergence herbicide test; format: in vivo, Urochloa decumbens; settings: for Surinam Grass plant response rating: postemergence, visual rating, scale 0 (no effect) to 100 (complete control)
How it was run: (§1)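 Flooded paddy rice and barnyardgrass were treated at the 2-leaf stage; upland plantings received compound either on sown seed or on 1- to 4-leaf seedlings. All were kept 13–15 days in a greenhouse and scored visually, 0–100, relative to untreated plants.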

lambsquarters = assay: Test B pre-/postemergence herbicide test; format: in vivo, Chenopodium album; settings: for Lambsquarters plant response rating: postemergence, visual rating, scale 0 (no effect) to 100 (complete control)
How it was run: as §1

corn = assay: Test B pre-/postemergence herbicide test; format: in vivo, Zea mays; settings: for Corn plant response rating: postemergence, visual rating, scale 0 (no effect) to 100 (complete control)
How it was run: as §1

[1] = test system: small flower umbrella sedge; assay: Test B flooded paddy test; format: in vivo, Cyperus difformis; settings: 1000 g ai/ha, visual rating, scale 0 to 100 (0 no effect, 100 complete control), 13 to 15 days
How it was run: (§2)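 Visual control ratings, 0–100 versus untreated controls, taken after 13 to 15 days in the greenhouse. Blackgrass received a postemergence spray at the 1- to 4-leaf stage (2–18 cm); ducksalad, umbrella sedge and barnyardgrass were flooded-paddy treated at 2 leaves.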

ducksalad [2] = assay: Test C flooded paddy test; format: in vivo, Heteranthera limosa
barnyardgrass [3] = assay: Test B flooded paddy test; format: in vivo, Echinochloa crus-galli; settings: 1000 g ai/ha, visual rating, scale 0 to 100 (0 no effect, 100 complete control), 13 to 15 days
How it was run: as §2

morningglory = assay: Test B pre-/postemergence herbicide test; format: in vivo, Ipomoea coccinea; settings: for Morningglory plant response rating: postemergence, visual rating, scale 0 (no effect) to 100 (complete control)
How it was run: (§3)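 Response was scored visually 13 to 15 days after treatment against untreated greenhouse controls, 0 meaning no effect and 100 complete control. Formulations (solvent mixture plus surfactant) went onto soil after planting, onto foliage of 1- to 4-leaf plants, and onto 2-leaf plants in a flooded paddy set including rice and barnyardgrass.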

wheat = assay: Test B postemergence herbicide test; format: in vivo, Triticum aestivum; set-up: key to Wheat plant response rating: 0 = no effect, 100 = complete control; settings: postemergence, visual rating, scale 0 (no effect) to 100 (complete control)
How it was run: (§4)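 Formulated test chemicals went onto postemergence plants measuring 2 to 18 cm, at one to four leaves. For the paddy assay, species had reached two leaves. Scoring took place 13–15 days later by eye, relative to untreated plants, using 0 for no effect up to 100 for full control.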

blackgrass = assay: Test B postemergence herbicide test; format: in vivo, Alopecurus myosuroides; settings: postemergence, visual rating, scale 0 (no effect) to 100 (complete control)
How it was run: as §2

velvetleaf = assay: Test B pre-/postemergence herbicide test; format: in vivo, Abutilon theophrasti; settings: for Velvetleaf plant response rating: postemergence, visual rating, scale 0 (no effect) to 100 (complete control)
How it was run: as §1

rice [4] = assay: Test B flooded paddy test; format: in vivo, Oryza sativa; settings: 1000 g ai/ha, visual rating, scale 0 to 100 (0 no effect, 100 complete control), 13 to 15 days
How it was run: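 After treating 2-leaf paddy plants or 2–18 cm postemergence plants (1 to 4 leaves) with formulated chemical, researchers kept them in a greenhouse for 13–15 days. Effects were judged visually versus controls: 0 indicates none, 100 total control.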

rice [5] = assay: Test B pre-/postemergence herbicide test; format: in vivo, Oryza sativa; settings: preemergence
How it was run: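 Evaluation is visual, comparing treated with control plants on a scale where 0 means no effect and 100 means full control. Treatments were preemergence, or postemergence on seedlings 2–18 cm tall, and held 13–15 days in the greenhouse.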

barnyardgrass [6] = assay: Test C flooded paddy test; format: in vivo, Echinochloa crus-galli
How it was run: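 Greenhouse test with a 12–14 day hold after application and visual comparison with controls. Emerged plants were 1- to 4-leaf stage (2–18 cm) when sprayed postemergence, and the paddy barnyardgrass was at 2 leaves under flooded conditions. 100 = complete control.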

cocklebur = assay: Test B pre-/postemergence herbicide test; format: in vivo, Xanthium strumarium; settings: for Cocklebur plant response rating: postemergence, visual rating, scale 0 (no effect) to 100 (complete control)
How it was run: as §3

rice [7] = assay: Test C flooded paddy test; format: in vivo, Oryza sativa
How it was run: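 Injury scored visually against controls on a 0 (no effect) to 100 (complete control) scale, 12 to 14 days after treatment in greenhouse. Flooded paddy plants treated at 2-leaf stage; postemergence plants at 1- to 4-leaf stage, 2 to 18 cm tall.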

wild oat = assay: Test B postemergence herbicide test; format: in vivo, Avena fatua; settings: postemergence, visual rating, scale 0 (no effect) to 100 (complete control)
How it was run: as §4

large crabgrass = assay: Test B pre-/postemergence herbicide test; format: in vivo, Digitaria sanguinalis; settings: for Crabgrass, Large plant response rating: postemergence, visual rating, scale 0 (no effect) to 100 (complete control)
How it was run: as §1

giant foxtail = assay: Test B pre-/postemergence herbicide test; format: in vivo, Setaria faberi; settings: for Foxtail, Giant plant response rating: postemergence, visual rating, scale 0 (no effect) to 100 (complete control)
How it was run: as §1

barnyardgrass [8] = assay: Test B pre-/postemergence herbicide test; format: in vivo, Echinochloa crus-galli; settings: for Barnyardgrass plant response rating: postemergence, visual rating, scale 0 (no effect) to 100 (complete control)
How it was run: as §3

[9] = test system: smallflower umbrella sedge; assay: Test C flooded paddy test; format: in vivo, Cyperus difformis
pigweed = assay: Test B pre-/postemergence herbicide test; format: in vivo, Amaranthus retroflexus; settings: for Pigweed plant response rating: postemergence, visual rating, scale 0 (no effect) to 100 (complete control)
How it was run: as §1

ducksalad [10] = assay: Test B flooded paddy test; format: in vivo, Heteranthera limosa; settings: 1000 g ai/ha, visual rating, scale 0 to 100 (0 no effect, 100 complete control), 13 to 15 days
How it was run: as §2

[11] = 125 g ai/ha, 0 = no effect, 100 = complete control, preemergence
[12] = 500 g ai/ha, visual rating 0-100, 0 no effect, 100 complete control, preemergence
[13] = 62 g ai/ha, scale 0 to 100 (0 no effect, 100 complete control)
[14] = 125 g ai/ha, scale 0 to 100 (0 no effect, 100 complete control)
[15] = 250 g ai/ha, scale of 0 to 100, 0 is no effect, 100 is complete control
[16] = 500 g ai/ha, visual rating after 12 to 14 days, scale 0 to 100 (0 no effect, 100 complete control)

CCOC(=O)c1cccc(NC(=O)c2cn(C(C)(C)C)nc2CC)c1 [Compound 186]
Surinam Grass plant response rating (0 to 100 scale) (Surinam grass; [11]): 0 | Plant response rating, Surinam Grass (Surinam grass; [12]): 10 | Surinam Grass plant response rating (Surinam grass; 125 g ai/ha): 10 | Surinam Grass plant response rating (Surinam grass; 500 g ai/ha): 30 | Lambsquarters plant response rating (0 to 100 scale) (lambsquarters; [11]): 0 | Plant response rating, Lambsquarters (lambsquarters; [12]): 0 | Lambsquarters plant response rating (lambsquarters; 125 g ai/ha): 10 | Lambsquarters plant response rating (lambsquarters; 500 g ai/ha): 30 | Corn plant response rating (0 to 100 scale) (corn; [11]): 0 | Plant response rating, Corn (corn; [12]): 10 | Corn plant response rating (corn; 125 g ai/ha): 20 | Corn plant response rating (corn; 500 g ai/ha): 20 | Sedge, Umbrella plant response rating [1]: 90 | Ducksalad plant response rating (ducksalad [2]; [13]): 15 | Ducksalad plant response rating (ducksalad [2]; [14]): 40 | Ducksalad plant response rating (ducksalad [2]; [15]): 65 | Plant response rating, Ducksalad (ducksalad [2]; [16]): 80 | Barnyardgrass plant response rating (barnyardgrass [3]): 30 | Morningglory plant response rating (0 to 100 scale) (morningglory; [11]): 0 | Plant response rating, Morningglory (morningglory; [12]): 0 | Morningglory plant response rating (morningglory; 125 g ai/ha): 20 | Morningglory plant response rating (morningglory; 500 g ai/ha): 30 | Wheat plant response rating (wheat; 125 g ai/ha): 10 | Wheat plant response rating (wheat; 500 g ai/ha): 20 | Blackgrass plant response rating (blackgrass; 125 g ai/ha): 10 | Blackgrass plant response rating (blackgrass; 500 g ai/ha): 30 | Velvetleaf plant response rating (0 to 100 scale) (velvetleaf; [11]): 10 | Plant response rating, Velvetleaf (velvetleaf; [12]): 20 | Velvetleaf plant response rating (velvetleaf; 125 g ai/ha): 60 | Velvetleaf plant response rating (velvetleaf; 500 g ai/ha): 60 | Rice plant response rating (rice [4]): 30 | Rice plant response rating (0 to 100 scale) (rice [5]; 125 g ai/ha, 0 = no effect, 100 = complete control): 0 | Plant response rating, Rice (rice [5]; 500 g ai/ha, visual rating 0-100, 0 no effect, 100 complete control): 20 | Barnyardgrass plant response rating (barnyardgrass [6]; [13]): 20 | Barnyardgrass plant response rating (barnyardgrass [6]; 125 g ai/ha, scale of 0 to 100, 0 is no effect, 100 is complete control): 30 | Barnyardgrass plant response rating (barnyardgrass [6]; [15]): 45 | Plant response rating, Barnyardgrass (barnyardgrass [6]; [16]): 70 | Cocklebur plant response rating (0 to 100 scale) (cocklebur; [11]): 0 | Plant response rating, Cocklebur (cocklebur; [12]): 0 | Cocklebur plant response rating (cocklebur; 125 g ai/ha): 60 | Cocklebur plant response rating (cocklebur; 500 g ai/ha): 90 | Rice plant response rating (rice [7]; [13]): 40 | Rice plant response rating (rice [7]; [14]): 55 | Rice plant response rating (rice [7]; [15]): 60 | Plant response rating, Rice (rice [7]; [16]): 65 | Oat, Wild plant response rating (wild oat; 125 g ai/ha): 10 | Oat, Wild plant response rating (wild oat; 500 g ai/ha): 20 | Crabgrass, Large plant response rating (0 to 100 scale) (large crabgrass; [11]): 0 | Plant response rating, Crabgrass, Large (large crabgrass; [12]): 10 | Crabgrass, Large plant response rating (large crabgrass; 125 g ai/ha): 10 | Crabgrass, Large plant response rating (large crabgrass; 500 g ai/ha): 10 | Foxtail, Giant plant response rating (0 to 100 scale) (giant foxtail; [11]): 0 | Plant response rating, Foxtail, Giant (giant foxtail; [12]): 10 | Foxtail, Giant plant response rating (giant foxtail; 125 g ai/ha): 10 | Foxtail, Giant plant response rating (giant foxtail; 500 g ai/ha): 20 | Barnyardgrass plant response rating (0 to 100 scale) (barnyardgrass [8]; [11]): 0 | Plant response rating, Barnyardgrass (barnyardgrass [8]; [12]): 10 | Barnyardgrass plant response rating (barnyardgrass [8]; 125 g ai/ha): 10 | Barnyardgrass plant response rating (barnyardgrass [8]; 500 g ai/ha): 50 | Sedge, Umbrella plant response rating [9, 13]: 80 | Sedge, Umbrella plant response rating [9, 14]: 80 | Sedge, Umbrella plant response rating [9, 15]: 80 | Plant response rating, Sedge, Umbrella [9, 16]: 85 | Pigweed plant response rating (0 to 100 scale) (pigweed; [11]): 0 | Plant response rating, Pigweed (pigweed; [12]): 0 | Pigweed plant response rating (pigweed; 125 g ai/ha): 60 | Pigweed plant response rating (pigweed; 500 g ai/ha): 60 | Ducksalad plant response rating (ducksalad [10]): 90
